Tests used:
[1] = molecular target: TDE1909 (CdaA) (Treponema denticola, UniProt Q73LF5); type: biochemical; conditions: 150 µM ATP, 5 µM enzyme, 10 mM MnCl2, pH 7.5, 37 °C, 1-4 hr
[2] = molecular target: TDE0027 (DhhA) (Treponema denticola, UniProt Q73RQ8); test: absorbance at […] nm; type: biochemical; conditions: MnCl2 buffer, 30 min
[3] = molecular target: T1, TDE0087 (TrkA) (Treponema denticola, UniProt Q73RK1); test: ELISA-type plate binding, immobilised protein, streptavidin-HRP; conditions: labelled compound (biotinylated c-di-AMP, 125 nM); 50 mM Tris-HCl pH 8.0, 750 mM KCl, 2.5 mM EDTA, 2 hr
T1 sequence (Q73RK1 1-466): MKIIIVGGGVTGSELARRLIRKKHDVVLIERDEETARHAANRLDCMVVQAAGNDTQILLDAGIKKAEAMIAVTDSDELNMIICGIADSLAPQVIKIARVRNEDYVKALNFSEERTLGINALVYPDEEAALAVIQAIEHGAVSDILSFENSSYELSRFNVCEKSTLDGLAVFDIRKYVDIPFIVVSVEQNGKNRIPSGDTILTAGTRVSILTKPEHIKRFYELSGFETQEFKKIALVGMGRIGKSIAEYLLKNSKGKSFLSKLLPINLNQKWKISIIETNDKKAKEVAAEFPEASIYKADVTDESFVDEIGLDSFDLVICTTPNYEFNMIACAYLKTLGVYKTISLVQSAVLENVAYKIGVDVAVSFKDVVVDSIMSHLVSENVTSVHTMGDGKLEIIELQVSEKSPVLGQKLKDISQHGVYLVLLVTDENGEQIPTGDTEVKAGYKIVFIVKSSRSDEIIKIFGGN

SMILES	RP-HPLC of reaction products [1]	absorbance at 405 nm [2]	ELISA-type plate binding, immobilised protein, streptavidin-HRP [3]
Nc1ncnc2c1ncn2[C@@H]1O[C@H](COP(=O)(O)OP(=O)(O)OP(=O)(O)O)[C@@H](O)[C@H]1O [ATP]	we observed that CdaA converted ATP to c-di-AMP while CdaR did not		
O=[N+]([O-])c1ccc(OP(=O)(O)Oc2ccc([N+](=O)[O-])cc2)cc1 [bis-pNPP]		TDE0027 hydrolyzed bis-pNPP but not pNPP	
Nc1ncnc2c1ncn2[C@@H]1O[C@@H]2COP(=O)(O)O[C@H]3[C@@H](O)[C@H](n4cnc5c(N)ncnc54)O[C@@H]3COP(=O)(O)O[C@H]2[C@H]1O [c-di-AMP]	we observed that CdaA converted ATP to c-di-AMP while CdaR did not		TDE0087 bound c-di-AMP similarly to the CabP control

From article PMC11368658 (Molecular oral microbiology, 2024)
